The values that follow come from publication PMC10573254, “Development of Novel Class of Phenylpyrazolo[3,4-d]pyrimidine-Based Analogs with Potent Anticancer Activity and Multitarget Enzyme Inhibition Supported by Docking Studies” (International Journal of Molecular Sciences, 2023).

Where two headings read alike, the source gives them in different places. A value given as a limit tells only on which side of the number the result lay.

The test system of one series is MCF-7. Put plainly: MTT cytotoxicity assay, MCF-7. In kind it is cell-based. The following applies: Homo sapiens, MCF7; MTT, breast cancer cells; read-out: IC50 MCF-7. In general terms: Formazan colour is commonly taken as a measure of viable cells.
Another series deals with HCT-116. As to the kind of experiment: MTT cytotoxicity assay, HCT-116. In kind it is cell-based. As to conditions: Homo sapiens, HCT-116, read-out: IC50 HCT-116; MTT, colon cancer cells.
Another series relates to HePG-2. Put plainly: MTT cytotoxicity assay, HePG-2. In kind it is cell-based. The following applies: Homo sapiens, HepG2. Here is the method: (§1) The cytotoxic activity was assessed using the 3-(4,5-dimethylthiazol-2-yl)-2,5-diphenyl tetrazolium bromide (MTT) colorimetric assay, as reported previously. Doxorubicin was used as a reference standard, and DMSO was used as a negative control. Briefly, the designated cell lines were cultured at a concentration of 5 × 10^4 cell/well in 96-well plates. The cells were incubated for 24 h under optimum conditions. Following this, the designated molecules were introduced (in serial dilutions from 0 to 50 μg/mL), and the cells were incubated for an additional 24 h. Following this, the media were withdrawn, and 100 μL of fresh medium was added. Then, 10 µL of the 12 mM MTT stock solution was administered to each well. The plates were then incubated for 4 h. […] An 85-μL aliquot of the media was removed from the wells, and 50 µL of DMSO was added to each well and mixed thoroughly with the pipette and incubated at 37 °C for 10 min. Then, the optical density was measured at 590 nm with the microplate reader (Sunrise, TECAN, Inc., Morrisville, NC, USA).

Another series concerns WI-38. As to the kind of experiment: MTT assay on normal cell line WI-38. In kind it is cell-based. As to conditions: Homo sapiens, WI-38, MTT, normal human diploid fibroblasts. Here is the method: According to our design, the tested compounds are classified into four categories based on the length and the chemotype of the spacer (Figure 3). In the first category, we used monosubstituted hydrazone linker. […] The second category is represented by […] hydrazone linker.
as §1

The target in a further series is T1, Topo-II (Homo sapiens, UniProt Q02880).
T1 construct: purchased
As to the kind of experiment: In vitro Topo II inhibitory assay. In kind it is biochemical. The procedure: Curve fitting was performed using GraphPad Prism.
(1 picture or pasted object on this page, not shown here)

The mark [1] stands for this setting: MTT, liver cancer cells, read-out: IC50 HePG-2.

T1 sequence (Q02880 2-1626): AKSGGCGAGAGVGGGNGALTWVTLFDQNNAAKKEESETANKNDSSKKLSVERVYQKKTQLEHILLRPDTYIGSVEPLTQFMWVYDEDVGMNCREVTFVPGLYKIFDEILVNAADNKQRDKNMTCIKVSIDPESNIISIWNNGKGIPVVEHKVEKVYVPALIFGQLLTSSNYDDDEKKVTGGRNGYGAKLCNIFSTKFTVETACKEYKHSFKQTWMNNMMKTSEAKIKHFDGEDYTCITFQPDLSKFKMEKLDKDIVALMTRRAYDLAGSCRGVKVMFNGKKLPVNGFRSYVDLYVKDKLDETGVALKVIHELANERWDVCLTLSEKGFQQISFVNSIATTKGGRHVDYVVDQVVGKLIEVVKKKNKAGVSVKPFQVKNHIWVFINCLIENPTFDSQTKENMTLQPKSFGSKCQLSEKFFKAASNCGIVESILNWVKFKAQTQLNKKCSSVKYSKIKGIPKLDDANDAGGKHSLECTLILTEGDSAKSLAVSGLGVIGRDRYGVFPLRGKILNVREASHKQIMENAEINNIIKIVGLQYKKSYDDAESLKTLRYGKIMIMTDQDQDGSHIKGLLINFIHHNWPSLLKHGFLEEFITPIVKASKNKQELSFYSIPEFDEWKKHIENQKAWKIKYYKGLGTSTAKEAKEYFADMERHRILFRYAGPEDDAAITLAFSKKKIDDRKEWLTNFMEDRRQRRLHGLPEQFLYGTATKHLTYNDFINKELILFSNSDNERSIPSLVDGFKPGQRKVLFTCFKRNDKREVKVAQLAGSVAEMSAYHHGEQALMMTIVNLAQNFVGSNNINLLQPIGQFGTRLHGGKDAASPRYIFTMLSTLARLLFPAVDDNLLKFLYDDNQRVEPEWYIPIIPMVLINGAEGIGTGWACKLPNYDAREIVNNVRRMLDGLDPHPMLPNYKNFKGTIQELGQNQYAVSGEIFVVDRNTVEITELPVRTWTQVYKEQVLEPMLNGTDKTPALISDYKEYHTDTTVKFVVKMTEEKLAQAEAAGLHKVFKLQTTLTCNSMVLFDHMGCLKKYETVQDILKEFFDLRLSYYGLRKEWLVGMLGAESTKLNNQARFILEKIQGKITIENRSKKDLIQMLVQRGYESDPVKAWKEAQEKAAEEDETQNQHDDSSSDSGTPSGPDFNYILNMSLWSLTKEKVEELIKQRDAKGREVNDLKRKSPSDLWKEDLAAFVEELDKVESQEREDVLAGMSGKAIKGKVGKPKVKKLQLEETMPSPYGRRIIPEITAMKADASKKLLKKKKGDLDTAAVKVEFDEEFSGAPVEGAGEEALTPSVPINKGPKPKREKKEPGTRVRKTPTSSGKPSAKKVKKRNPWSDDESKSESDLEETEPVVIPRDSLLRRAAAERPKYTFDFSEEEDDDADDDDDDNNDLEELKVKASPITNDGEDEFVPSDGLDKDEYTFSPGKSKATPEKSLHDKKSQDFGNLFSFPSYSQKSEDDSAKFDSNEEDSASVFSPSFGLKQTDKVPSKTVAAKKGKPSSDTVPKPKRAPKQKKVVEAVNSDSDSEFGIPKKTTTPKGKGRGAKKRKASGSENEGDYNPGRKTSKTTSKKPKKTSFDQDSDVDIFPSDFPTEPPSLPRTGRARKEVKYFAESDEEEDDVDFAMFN
Method for HCT-116: (§2) The cytotoxic activity was assessed using the 3-(4,5-dimethylthiazol-2-yl)-2,5-diphenyl tetrazolium bromide (MTT) colorimetric assay, as reported previously [62, 63]. […] Briefly, the designated cell lines were cultured at a concentration of 5 × 10^4 cell/well in 96-well plates. The cells were incubated for 24 h under optimum conditions. Following this, the designated molecules were introduced (in serial dilutions from 0 to 50 μg/mL), and the cells were incubated for an additional 24 h. Following this, the media were withdrawn, and 100 μL of fresh medium was added. Then, 10 µL of the 12 mM MTT stock solution was administered to each well. The plates were then incubated for 4 h. Then, the cells were exposed to different compounds at the desired concentrations (0.01, 0.1, 1, 10, and 100 µM) or to 1% dimethyl sulfoxide (DMSO) for 48 and 72 h. […] Then, the optical density was measured at 590 nm with the microplate reader (Sunrise, TECAN, Inc., Morrisville, NC, USA).
Method for MCF-7: as §2

As a reminder, the melting point is the temperature, or range, at which the solid turns liquid. What is called IC50 is the point on the concentration scale where inhibition reaches its midpoint. In the case of `Cc1nc(NN=Cc2ccccc2)c2cnn(-c3ccccc3)c2n1` [Compound 5a, 4-(2-Benzylidenehydrazinyl)-6-methyl-1-phenyl-1H-pyrazolo[3,4-d]pyrimidine], the melting point is 160 to 162 °C. In the series with MCF-7, the IC50 was determined as 21.1 ± 1.5 µM. The IC50 in the series with HCT-116 was 11.7 ± 0.9 µM. Moreover, the IC50 in the series with HePG-2 (setting [1]) worked out at 15.1 ± 1.2 µM.
`Cc1nc(NN=Cc2ccc(Cl)cc2)c2cnn(-c3ccccc3)c2n1` [Compound 5c, 4-(2-(4-Chlorobenzylidene)hydrazinyl)-6-methyl-1-phenyl-1H-pyrazolo[3,4-d]pyrimidine] returned a melting point of 233 to 235 °C. Moreover, the IC50 with MCF-7 was 66.6 ± 3.8 µM. Besides, in the series with HCT-116, the IC50 was 39.5 ± 2.6 µM. Moreover, the IC50 in the series with HePG-2 (setting [1]) came out at 83.7 ± 4.4 µM.
The compound `COc1ccc(C=NNc2nc(C)nc3c2cnn3-c2ccccc2)cc1` [Compound 5d] came in with a melting point of 227 to 229 °C. Moreover, in the series on MCF-7, the IC50 came out at 19.4 ± 1.3 µM. For the same compound, the IC50 with HCT-116 amounted to 9.87 ± 0.7 µM. Further, the IC50 with HePG-2 (setting [1]) amounted to 18.3 ± 1.5 µM.
`COc1ccccc1C=NNc1nc(C)nc2c1cnn2-c1ccccc1` [Compound 5e, 4-(2-(2-Methoxybenzylidene)hydrazineyl)-6-methyl-1-phenyl-1H-pyrazolo[3,4-d]pyrimidine] gave a melting point of 220 to 222 °C. Besides, the IC50 in the series on MCF-7 turned out to be 16.1 ± 1.1 µM. Further, the half-inhibitory concentration (IC50) in the series with HCT-116 is 8.15 ± 0.5 µM. For the same compound, the IC50 in the series on HePG-2 (setting [1]) worked out at 13.8 ± 1 µM.
Turning to `Cc1nc(NN=Cc2ccc([N+](=O)[O-])cc2)c2cnn(-c3ccccc3)c2n1` [Compound 5f, 6-Methyl-4-(2-(4-nitrobenzylidene)hydrazineyl)-1-phenyl-1H-pyrazolo[3,4-d]pyrimidine], the melting point lay within 250 to 252 °C. In addition, the IC50 in the series on MCF-7 was more than 100 µM. Further, the IC50 in the series on HCT-116 came to 89.7 ± 4.8 µM. In addition, the IC50 in the series with HePG-2 (setting [1]) was more than 100 µM.
In turn, `Cc1nc(NN=Cc2c(Cl)cccc2Cl)c2cnn(-c3ccccc3)c2n1` [Compound 5g, 4-(2-(2,6-Dichlorobenzylidene)hydrazineyl)-6-methyl-1-phenyl-1H-pyrazolo[3,4-d]pyrimidine] registered a melting point of 255 to 257 °C. Further, in the series on MCF-7, the IC50 is more than 100 µM. In addition, the IC50 in the series with HCT-116 was more than 100 µM. Further, the IC50 in the series with HePG-2 (setting [1]) is more than 100 µM.
In turn, `Cc1nc(NN=CC=Cc2ccccc2)c2cnn(-c3ccccc3)c2n1` [Compound 5h, 6-Methyl-1-phenyl-4-(2-(-3-phenylallylidene)hydrazineyl)-1H-pyrazolo[3,4-d]pyrimidine] showed a melting point of 241 to 243 °C. In addition, the IC50 in the series on MCF-7 is more than 100 µM. In addition, in the series on HCT-116, the IC50 is 76.8 ± 4.1 µM. For the same compound, the IC50 in the series on HePG-2 (setting [1]) is more than 100 µM.
The compound `CC(=NNc1nc(C)nc2c1cnn2-c1ccccc1)c1ccc(N)cc1` [Compound 5j, 4-(1-(2-(6-Methyl-1-phenyl-1H-pyrazolo[3,4-d]pyrimidin-4-yl)hydrazineylidene)ethyl)aniline] returned a melting point of 221 to 223 °C. Also, the IC50 with MCF-7 was found to be 36 ± 2.4 µM. Further, in the series with HCT-116, the IC50 came out at 21.5 ± 1.5 µM. Further, the IC50 in the series on HePG-2 (setting [1]) is 44.3 ± 2.9 µM.
`COc1ccc(C(C)=NNc2nc(C)nc3c2cnn3-c2ccccc2)cc1` [Compound 5k, 4-(2-(1-(4-Methoxyphenyl)ethylidene)hydrazinyl)-6-methyl-1-phenyl-1H-pyrazolo[3,4-d]pyrimidine] gave a melting point of 235 to 237 °C. For the same compound, in the series with MCF-7, the IC50 amounted to 88.3 ± 4.7 µM. In addition, the concentration for half-maximal inhibition (IC50) with HCT-116 worked out at 78 ± 4.2 µM. In the series with HePG-2 (setting [1]), the IC50 was 91.6 ± 5.1 µM.
`CC(=NNc1nc(C)nc2c1cnn2-c1ccccc1)c1ccc(Cl)cc1Br` [Compound 5l, 4-(2-(1-(2-Bromo-4-chlorophenyl)ethylidene)hydrazineyl)-6-methyl-1-phenyl-1H-pyrazolo[3,4-d] pyrimidine] displayed a melting point of 257 to 259 °C. The IC50 in the series on MCF-7 was 29.2 ± 1.8 µM. Besides, in the series on HCT-116, the IC50 is 14.6 ± 1.1 µM. In addition, the IC50 with HePG-2 (setting [1]) came out at 17.1 ± 1.3 µM.
For the compound `Cc1nc2c(cnn2-c2ccccc2)c2nncn12` [Compound 6a, 5-Methyl-7-phenyl-7H-pyrazolo[4,3-e][1,2,4]triazolo[4,3-c]pyrimidine], the melting point fell in the range of 250 to 252 °C. Besides, in the series with MCF-7, the IC50 turned out to be 49.6 ± 3.1 µM. For the same compound, the IC50 in the series on HCT-116 came out at 34.6 ± 2.2 µM. The IC50 with HePG-2 (setting [1]) worked out at 37.5 ± 2.7 µM.
Consider `Cc1nc2c(cnn2-c2ccccc2)c2nnc(C(F)(F)F)n12` [Compound 6b, 5-Methyl-7-phenyl-3-(trifluoromethyl)-7H-pyrazolo[4,3-e][1,2,4]triazolo[4,3-c]pyrimidine], for which the melting point was in the range of 267 to 269 °C. The half-maximal inhibitory concentration (IC50) in the series on MCF-7 came out at 39.1 ± 2.5 µM. Besides, in the series with HCT-116, the IC50 came out at 26.1 ± 1.8 µM. In the series on HePG-2 (setting [1]), the IC50 amounted to 25.2 ± 2 µM.
`Cc1nc2c(cnn2-c2ccccc2)c2nnc(C(Cl)(Cl)Cl)n12` [Compound 6c, 5-Methyl-7-phenyl-3-(trichloromethyl)-7H-pyrazolo[4,3-e][1,2,4]triazolo[4,3-c]pyrimidine] had a melting point of 250 to 252 °C. Moreover, the IC50 in the series on MCF-7 was 54.2 ± 3.4 µM. Further, the concentration for half-maximal inhibition (IC50) in the series with HCT-116 was 37.2 ± 2.4 µM. In addition, the IC50 in the series on HePG-2 (setting [1]) came out at 56.2 ± 3.5 µM.
Consider `CC(=O)CC(C)=Nc1nc(C)nc2c1cnn2-c1ccccc1` [Compound 6d, 4-((6-Methyl-1-phenyl-1H-pyrazolo[3,4-d]pyrimidin-4-yl)imino)pentan-2-one], for which the melting point lay within 240 to 242 °C. Further, in the series on MCF-7, the IC50 was 84.6 ± 4.6 µM. Besides, the IC50 in the series on HCT-116 worked out at 93.4 ± 5.2 µM. The IC50 with HePG-2 (setting [1]) amounted to 89.2 ± 4.7 µM.
The matching figures for `Cc1nc(NN2C(=O)CCC2=O)c2cnn(-c3ccccc3)c2n1` [Compound 7, 1-((6-Methyl-1-phenyl-1H-pyrazolo[3,4-d]pyrimidin-4-yl)amino)pyrrolidine-2,5-dione]: 280 to 282 °C, 81 ± 4.6 µM, 73.5 ± 3.8 µM and 87.2 ± 4.5 µM.
As to `Cc1nc(NN2C(=O)C=CC2=O)c2cnn(-c3ccccc3)c2n1` [Compound 8, 1-((6-Methyl-1-phenyl-1H-pyrazolo[3,4-d]pyrimidin-4-yl)amino)-1H-pyrrole-2,5-dione], the IC50 worked out at 79.5 ± 4.4 µM in the series with MCF-7, 66.3 ± 3.5 µM in the series with HCT-116 and 78.5 ± 4.3 µM in the series with HePG-2 (setting [1]).
On to `CCNC(=S)NNc1nc(C)nc2c1cnn2-c1ccccc1` [Compound 9a, N-Ethyl-2-(6-methyl-1-phenyl-1H-pyrazolo[3,4-d]pyrimidin-4-yl)hydrazinecarbothioamide], for which the melting point was 278 to 280 °C. Besides, the IC50 with MCF-7 is 7.61 ± 0.4 µM. For the same compound, in the series on HCT-116, the IC50 amounted to 2.96 ± 0.1 µM. Moreover, in the series on HePG-2 (setting [1]), the IC50 worked out at 5.97 ± 0.3 µM.
Turning to `CCCNC(=S)NNc1nc(C)nc2c1cnn2-c1ccccc1` [Compound 9b, 2-(6-Methyl-1-phenyl-1H-pyrazolo[3,4-d]pyrimidin-4-yl)-N-propylhydrazinecarbothioamide], the IC50 in the series with MCF-7 came to 34.2 ± 2 µM; in the series on HCT-116, 17.6 ± 1.3 µM; in the series with HePG-2 (setting [1]) it was 23.9 ± 1.8 µM.
With `CCCCNC(=S)NNc1nc(C)nc2c1cnn2-c1ccccc1` [Compound 9c, N-Butyl-2-(6-methyl-1-phenyl-1H-pyrazolo[3,4-d]pyrimidin-4-yl)hydrazinecarbothioamide], the melting point fell in the range of 270 to 272 °C. Further, the IC50 in the series on MCF-7 came to 31.4 ± 1.9 µM. In addition, the IC50 in the series with HCT-116 stood at 16.6 ± 1.2 µM. In addition, the IC50 with HePG-2 (setting [1]) amounted to 20.3 ± 1.6 µM.
For `C=CNC(=S)NNc1nc(C)nc2c1cnn2-c1ccccc1` [Compound 9d, 2-(6-Methyl-1-phenyl-1H-pyrazolo[3,4-d]pyrimidin-4-yl)-N-vinylhydrazine-1-carbothioamide], the melting point lay in the range of 268 to 270 °C. In the series on MCF-7, the IC50 stood at 35.2 ± 2.2 µM. Moreover, in the series with HCT-116, the IC50 stood at 19.7 ± 1.4 µM. In the series on HePG-2 (setting [1]), the IC50 turned out to be 32.6 ± 2.4 µM.
As for `COc1cccc2c1C(=O)c1c(O)c3c(c(O)c1C2=O)C[C@@](O)(C(=O)CO)C[C@@H]3O[C@H]1C[C@H](N)[C@H](O)[C@H](C)O1` [DOX, Doxorubicin, reference compound], the IC50 stood at 4.5 ± 0.2 µM in the series on HePG-2 (24 h incubation, read-out: IC50 HePG-2 24 h); 3.24 ± 0.2 µM in the series on HePG-2 (48 h incubation, read-out: IC50 HePG-2 48 h); 1.07 ± 0.1 µM with HePG-2 (72 h incubation, read-out: IC50 HePG-2 72 h); 4.5 ± 0.2 µM with HePG-2 (setting [1]); 10.6 ± 0.47 µM in the series with WI-38.
As for `COc1cc([C@@H]2c3cc4c(cc3[C@@H](O[C@@H]3O[C@@H]5CO[C@@H](C)O[C@H]5[C@H](O)[C@H]3O)[C@H]3COC(=O)[C@H]23)OCO4)cc(OC)c1O` [Etoposide, reference compound], the “TOPO IiB %inh at conc 12.5” value on Topo-II (conc 12.5, unit not given) was found to be 7.5%. The “TOPO IiB %inh at conc 25” value on Topo-II (conc 25, unit not given) came out at 20%. The “TOPO IiB %inh at conc 50” value on Topo-II (conc 50, unit not given) is recorded as 39%. In addition, the “TOPO IiB %inh at conc 100” value at Topo-II (conc 100, unit not given) came out at 69%.
